Where two headings read alike, the source gives them in different places.
What was measured:
[1] = test system: infantile female Wistar rats; assay: Uterine activity in infantile female Wistar rats; type: in vivo, Wistar rat; conditions: n=10
Source text: STS 593 was weaker than ethynylestradiol by a factor of 9 in its estrogenic properties as shown by the Allen-Doisy test in ovariectomized mice. The compound was only 7% as active as the standard mestranol in producing a uterine response in infantile rats (Table 3), whereas the antiestrogenic properties exceeded those of clomiphene citrate by a factor of 1.4.
Comparison of uterine activity in infantile female
Wistar rats produced by STS 593 and mestranol

rats (testicular mass) = assay: Antigonadotrophic activity (testicular mass) in rats; type: in vivo, rat; conditions: Rattus norvegicus, 120 h; rats; read-out: Effective dose for the HE50, antigonadotrophic
Description: The effective dose for the HE50 was close to 0.65 mg/kg of body-wt./5 d, while mestranol has the same effect at a dose as low as 0.15 mg/kg of body-wt./5 d.

inseminated rats = assay: Antinidation / Nidation Inhibition Test in inseminated rats treated on the 1st day of gestation; type: in vivo, rat; conditions: for Female rats pregnant of n, normal / Female rats pregnant of n, total / GHE1 / GHE2 / IHE1 / IHE2 / Implantations per female (-x), normal / Implantations per female (-x), total: mestranol 0.2 mg/kg p.o.; for ED50 / ED5 / ED95: Rattus norvegicus, po, STS 593 from trial No. 2
Source text: The favorable biological properties of the named compounds of the process according to the invention are to be further illustrated and described in the example of 3-methoxy-14β-15β-methylene-estra-1,3,5(10)-triene-17β-ol (test designation STS 593).
(§1) Gestation and nidation inhibition expressed in % were used as parameters for antifertility effects. GHE1 (gestation inhibitory effect) and IHE1 (nidation inhibitory effect) were related to the inhibition of the total of gestations or nidations, GHE2 and IHE2 were related to the inhibition of normal gestations or nidations within each group. […] GHE1, GHE2, IHE1 and IHE2 were calculated using the following formulae: [formula] n=number of females inseminated in each group v=test group
k=control group (sesame oil)
x=number of all gestations (GHE1) and of normal gestations (GHE2) p. group, respectively
(§2) f=average number (x) of all implantations (IHE1) and of normal implantations (IHE2) p. female inseminated within a group, respectively.
The comparison of the relative incidence of gestations was performed by the Ryan test, the comparison of the number of implantations by the Dunn test.
(§3) For GHE1 and GHE2 the ED (effective doses) for the HE (inhibitory effect) 0%, 50%, and 95% as far as possible were determined by means of the probit analysis. The ED50 for IHE1 and IHE2 were determined graphically.

[2] = test system: mice (uterine fresh weight); assay: Uterine activity in mice (dose for doubling uterine fresh weight); type: in vivo, mouse; conditions: for Total dose for doubling uterine fresh weight: p.o.; for Uterine response / uterine activity (in words): Table 6
Source text: (§4) Uterine and contraceptive activities produced by selected
(§5) 14,15-methylene-17-ol-estratrienes in mice

infantile rabbit uteri = assay: McPhail test, progestagenic and antiprogestagenic activities in infantile rabbit uteri; type: in vivo; conditions: progesterone 4 mg/animal s.c. alone, total dose over 4 days; n=6
Source text: The HE of 97.3% is significant (Table 5).
Progestagenic and antiprogestagenic activities of STS 593
in infantile rabbit uteri as shown by the McPhail test

mice = assay: Contraceptive activity in mice, single application on 1st day of gestation; type: in vivo, mouse; conditions: for Contraceptive activities related to IHE1 (ranking in words): among the other compounds of Table 6; for THE, % after single application of 10 mg/kg of body-wt. on the 1st day of gestation p.o.: mice, 10 mg/kg p.o.
Description: as §1, §2, §3, §4, §5

[3] = General statement on antifertility effects and separation from uterine, estrogenic and antigonadotrophic activities; type: in vivo
[4] = determined graphically, read-out: ED 50 for IHE1
[5] = determined graphically, read-out: ED 50 for IHE2
[6] = probit analysis, read-out: ED 05 for GHE1
[7] = probit analysis, read-out: ED 05 for GHE2
[8] = probit analysis, read-out: ED 50 for GHE1
[9] = probit analysis, read-out: ED 50 for GHE2
[10] = probit analysis, read-out: ED 95 for GHE1
[11] = probit analysis, read-out: ED 95 for GHE2

## C#C[C@]1(O)CC[C@H]2[C@@H]3CCc4cc(OC)ccc4[C@H]3CC[C@@]21C [Mestranol, reference compound]
[1]; mestranol total dose 0.6 per animal over 3 days p.o.
  Uterine weight (-x): 70.11 mg
[1]; mestranol total dose 6.0 per animal over 3 days p.o.
  Uterine weight (-x): 95.45 mg
Rats (testicular mass)
  ED50: 0.15 mg/kg
Inseminated rats; 1st trial 1975, n=12
  Female rats pregnant of n, normal: 1
  Female rats pregnant of n, total: 11
  GHE1: 8.3%
  GHE2: 91.7%
  IHE1: 45.3%
  IHE2: 98.7%
  Implantations per female (-x), normal: 0.2
  Implantations per female (-x), total: 6.8
Inseminated rats; 2nd trial 1978, n=10
  Female rats pregnant of n, normal: 0
  Female rats pregnant of n, total: 6
  GHE1: 40%
  GHE2: 100%
  IHE1: 70.8%
  IHE2: 100%
  Implantations per female (-x), normal: 0
  Implantations per female (-x), total: 3.8
Inseminated rats; [4]
  ED50: 0.17 mg/kg
Inseminated rats; [5]
  ED50: 0.15 mg/kg
Inseminated rats; [6]
  ED5: 0.097 mg/kg
Inseminated rats; [7]
  ED5: 0.065 mg/kg
Inseminated rats; [8]
  ED50: 0.34 mg/kg
Inseminated rats; [9]
  ED50: 0.163 mg/kg
Inseminated rats; [10]
  ED95: 1.11 mg/kg
Inseminated rats; [11]
  ED95: 0.387 mg/kg

## C#C[C@]1(O)CC[C@H]2[C@@H]3CCc4cc(O)ccc4[C@H]3CC[C@@]21C [Ethynylestradiol, reference compound]
Inseminated rats; [4]
  ED50: 0.37 mg/kg
Inseminated rats; [5]
  ED50: < 0.21 mg/kg
Inseminated rats; [8]
  ED50: ≤ 0.45 mg/kg
Inseminated rats; [9]
  ED50: < 0.3 mg/kg

## COc1ccc2c(c1)CC[C@@H]1[C@@H]2CC[C@]2(C)C(OC(=O)Nc3ccccc3)CC3C[C@@]312 (stereo partly drawn) [STS 595, 17phenylaminocarbonyloxy-14β,15methylene-estra-1,3,5(10)-triene-3-mehylether]
[2]
  Total dose for doubling uterine fresh weight: 100 μg/animal

## CC(=O)[C@H]1CC[C@H]2[C@@H]3CCC4=CC(=O)CC[C@]4(C)[C@H]3CC[C@]12C [Progesterone, reference compound]
Infantile rabbit uteri
  McPhail index (-x): 3.0

## COc1ccc2c(c1)CC[C@@H]1[C@@H]2CC[C@]2(C)[C@@H](O)C[C@@H]3C[C@]312 [STS 651, 3-methoxy-14α,15α-methylene-estra-1,3,5(10)-triene-17β-ol]
mice
  Contraceptive activities related to IHE1 (ranking in words): strongest contraceptive activities
  THE, % after single application of 10 mg/kg of body-wt. on the 1st day of gestation p.o.: 84.4%
[2]
  Uterine response / uterine activity (in words): strongest uterine response
  Total dose for doubling uterine fresh weight: 0.2 μg/animal
Inseminated rats; [4]
  ED50: 0.107 mg/kg
Inseminated rats; [5]
  ED50: 0.096 mg/kg
Inseminated rats; [6]
  ED5: 0.059 mg/kg
Inseminated rats; [7]
  ED5: 0.043 mg/kg
Inseminated rats; [8]
  ED50: 0.183 mg/kg
Inseminated rats; [9]
  ED50: 0.11 mg/kg
Inseminated rats; [10]
  ED95: 0.583 mg/kg
Inseminated rats; [11]
  ED95: 0.265 mg/kg

## COc1ccc2c(c1)CC[C@@H]1[C@@H]2CC[C@]2(C)[C@H](O)C[C@@H]3C[C@]312 [STS 652, 3-methoxy-14α,15α-methylene-estra-1,3,5(10)-triene-17α-ol]
mice
  THE, % after single application of 10 mg/kg of body-wt. on the 1st day of gestation p.o.: 60.0%
[3]; in vivo
  Separation of desirable contraceptive and undesirable uterine and antigonadotrophic activities: very favorable separation
[2]
  Uterine response / uterine activity (in words): distinctly weaker uterine activities
  Total dose for doubling uterine fresh weight: 3.0 μg/animal

## COc1ccc2c(c1)CC[C@@H]1[C@@H]2CC[C@@]2(C)[C@@]13C[C@@H]3C[C@]2(C)O [STS 681, 3-methoxy-17α-methyl-14β,15β-methylene-estra-1,3,5(10)-triene-17β-ol]
mice
  Contraceptive activities related to IHE1 (ranking in words): strongest contraceptive activities
  THE, % after single application of 10 mg/kg of body-wt. on the 1st day of gestation p.o.: 81.7%
[3]; in vivo
  Antifertility effects (in words): strong antifertility effects
  Separation of desirable contraceptive and undesirable uterine and antigonadotrophic activities: very favorable separation
[2]
  Uterine response / uterine activity (in words): distinctly weaker uterine activities
  Total dose for doubling uterine fresh weight: 0.56 μg/animal

## COc1ccc2c(c1)CC[C@@H]1[C@@H]2CC[C@]2(C)[C@H](O)C[C@H]3C[C@@]312 [STS 592, 3-methoxy-14β-15β-methylene-estra-1,3,5(10)-triene-17α-ol]
mice
  THE, % after single application of 10 mg/kg of body-wt. on the 1st day of gestation p.o.: 35.0%
[3]; mice, among the compounds of Table 6
  Separation of desirable contraceptive and undesirable estrogenic effects: most favorable separation
[2]
  Uterine response / uterine activity (in words): distinctly weaker uterine activities
  Total dose for doubling uterine fresh weight: 7.0 μg/animal

## COc1ccc2c(c1)CC[C@@H]1[C@@H]2CC[C@]2(C)C(OC(=O)Nc3ccccc3)CC3C[C@@]312 (stereo partly drawn) [STS 594, 17phenylaminocarbnoyloxy-14β,15methylene-estra-1,3,5(10)-triene-3-mehylether]
[2]
  Total dose for doubling uterine fresh weight: 100 μg/animal

From patent US4231946A, “14,15-Methylene derivatives of the estrane series and methods for preparing same” (VEB Jenapharm, priority 1978, dated 1980)
